Read-outs that look alike come from different tables or passages of the source.
How the values were obtained:
PRMT5/MEP50 complex = molecular target: T1, PRMT5/MEP50 complex (Homo sapiens, UniProt O14744); assay: PRMT5:MEP50 HotSpot Assay (full-length histone H2A substrate, plus and minus MTA); type: biochemical; conditions: IC50 + 2 μM MTA, in the presence of 2 μM MTA
T1 construct: purchased Reaction Biology Corporation
Method in brief: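 Radiometric HotSpot format using recombinant full-length histone H2A as substrate, run with and without MTA. Reactions were stopped and spotted onto filter paper. Tritiated H2A was quantified by scintillation counting.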

[1] = test system: HCT116 homozygous MTAP knockout cells; assay: Proliferation assay (CellTiter-Glo, 10 days) in HCT116 homozygous MTAP knockout cells; type: cell-based; conditions: CellTiter-Glo after 10 days of treatment, read-out: Proliferation IC50 (nM) HCT116 MTAP_KO
Method in brief: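 MTAP-null HCT116 clone made by CRISPR/Cas9 knockout of both alleles, tested beside parental cells. Cells dosed the day after seeding, split 1:10 on day 6 into fresh medium with the same compound level, and read on day 11 by CellTiter-Glo. IC50 taken after 10 days of exposure.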

[2] = test system: PRMT5-dependent Symmetric Di-methyl Arginine signal in HCT116 homozygous MTAP Knockout cells; assay: SYM11 In-Cell Western in HCT116 homozygous MTAP knockout cells; type: cell-based; conditions: 4 days of treatment, SYM11/DRAQ5 ratio as percent of DMSO control, read-out: In-cell-Western (SYM11) IC50 (nM) HCT116 MTAP_KO
Description: HCT116 cells were genetically engineered to knock out the function of both MTAP alleles using a CRISPR/Cas9 system and an sgRNA targeting the MTAP gene. Following Cas9/MTAP sgRNA transduction, clones were screened to confirm that each allele of the MTAP gene had been inactivated (i.e., homozygous MTAP knock out) creating an MTAP-deficient cell.
Control samples were analyzed in parallel.
Briefly, on Day 0, 2,000 HCT116 parental or HCT116 homozygous MTAP knockout cells were seeded in 96 well plates in McCoy's 5A supplemented with 10% fetal bovine serum and pen/strep and the cells were incubated overnight at 37° C. plus 5% CO2. The following day, cells were treated with DMSO vehicle control or a dose response of PRMT5 inhibitors, and incubated at 37° C. plus 5% CO^2 for four days.
After 4 days of treatment, the cells were fixed by adding 50 μl of 4% paraformaldehyde solution to each well and the cells were incubated for 20 min at room temperature. The paraformaldehyde solution was removed, 150 μl of ice-cold methanol was added and the plate was placed −20° C. for 10 minutes. The methanol was removed, 150 μl of Odyssey Blocking buffer+0.05% Tween20 was added and the plate was incubated at room temperature with shaking for one hour.
The primary SYM11 antibody solution was removed by aspiration and the wells were washed three consecutive times with phosphate buffered saline containing 0.1% Tween-20 (PBST).
The secondary antibody solution was removed by aspiration and the wells were washed three consecutive times with PBST.
The SYM11 signal and the DRAQ5 signal were quantified using a Li-Cor Odyssey machine reading at […], respectively. The SYM11/DRAQ5 ratio was used to calculate the inhibition of Symmetric Dimethyl Arginine as percent of DMSO control.

T1 sequence (O14744 2-637 limits assumed): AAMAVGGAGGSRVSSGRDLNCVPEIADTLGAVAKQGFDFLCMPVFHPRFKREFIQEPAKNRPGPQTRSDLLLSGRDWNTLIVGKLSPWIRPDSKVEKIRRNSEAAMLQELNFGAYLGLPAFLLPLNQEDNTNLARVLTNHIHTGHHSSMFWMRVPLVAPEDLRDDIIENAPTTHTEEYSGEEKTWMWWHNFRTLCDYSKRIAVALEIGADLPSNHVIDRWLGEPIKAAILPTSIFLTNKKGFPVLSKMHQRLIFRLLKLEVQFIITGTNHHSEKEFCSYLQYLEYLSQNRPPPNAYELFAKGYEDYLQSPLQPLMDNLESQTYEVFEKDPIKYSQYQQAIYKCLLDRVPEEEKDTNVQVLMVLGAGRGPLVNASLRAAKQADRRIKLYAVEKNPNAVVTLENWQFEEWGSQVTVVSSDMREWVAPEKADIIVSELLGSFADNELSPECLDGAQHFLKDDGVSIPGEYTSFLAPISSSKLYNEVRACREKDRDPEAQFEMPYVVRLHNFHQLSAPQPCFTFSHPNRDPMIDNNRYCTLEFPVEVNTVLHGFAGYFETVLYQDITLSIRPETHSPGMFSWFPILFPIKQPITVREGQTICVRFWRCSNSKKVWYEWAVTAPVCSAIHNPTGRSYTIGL
T1 sequence (Q9BQA1 2-342 partner limits assumed): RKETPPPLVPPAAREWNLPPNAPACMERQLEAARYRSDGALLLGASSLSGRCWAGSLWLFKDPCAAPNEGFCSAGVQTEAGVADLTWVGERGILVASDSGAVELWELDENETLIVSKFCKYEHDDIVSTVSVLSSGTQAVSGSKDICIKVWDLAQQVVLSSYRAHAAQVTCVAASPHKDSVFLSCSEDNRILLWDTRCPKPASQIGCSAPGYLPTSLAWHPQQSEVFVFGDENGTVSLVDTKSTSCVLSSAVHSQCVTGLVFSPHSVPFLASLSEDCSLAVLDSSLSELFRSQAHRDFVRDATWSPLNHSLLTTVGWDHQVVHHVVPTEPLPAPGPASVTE

IC50 (PRMT5/MEP50 complex)	IC50 [1]	IC50 [2]	IC50 ([1]; Homo sapiens, HCT-116, 240 h)	IC50 ([2]; Homo sapiens, HCT-116, 96 h)	Compound
15.8 nM	10 nM	3 nM			Cn1ncc(-c2ccc3c(=O)[nH]nc(CN)c3c2)c1-c1c(F)c(Cl)c2ccccc2c1C#N (single isomer, unassigned) [Example 16-10, (M)-2-[4-[4-(aminomethyl)-1-oxo-2H-phthalazin-6-yl]-2-methyl-pyrazol-3-yl]-4-chloro-3-fluoro-naphthalene-1-carbonitrile]
			3870 nM	538 nM	CCc1cccc(-c2c(-c3cc4c(CN)n[nH]c(=O)c4cn3)cnn2C)c1C#N [Example 17-1, 2-[4-[1-(aminomethyl)-4-oxo-3H-pyrido[3,4-d]pyridazin-7-yl]-2-methyl-pyrazol-3-yl]-6-ethyl-benzonitrile]
261 nM	706 nM	6 nM			Cc1cc(-c2cnn(C)c2-c2c(C#N)cc3ccccc3c2Cl)cc2c(CN)n[nH]c(=O)c12 (single isomer, unassigned) [Example 16-51, (P)-3-[4-[4-(aminomethyl)-8-methyl-1-oxo-2H-phthalazin-6-yl]-2-methyl-pyrazol-3-yl]-4-chloro-naphthalene-2-carbonitrile]
6140 nM			10000 nM	1000 nM	Cn1ncc(-c2ccc3c(=O)[nH]nc(CN)c3c2)c1-c1csc2cccc(=O)n12 [Example 4-267, 3-[4-[4-(aminomethyl)-1-oxo-2H-phthalazin-6-yl]-2-methyl-pyrazol-3-yl] thiazolo[3,2-a]pyridin-5-one]
23.3 nM	17 nM	13 nM			Cn1ncc(-c2cc(Cl)c3c(=O)[nH]nc(CN)c3c2)c1-c1c(C#N)cc2ccccc2c1Cl (single isomer, unassigned) [Example 16-64, (M)-3-[4-[4-(aminomethyl)-8-chloro-1-oxo-2H-phthalazin-6-yl]-2-methyl-pyrazol-3-yl]-4-chloro-naphthalene-2-carbonitrile]
640 nM	290 nM	246 nM			Cc1c(F)c(-c2c(-c3cc(C)c4c(=O)[nH]nc(CN)c4c3)cnn2C)c(C#N)c2ccccc12 (single isomer, unassigned) [Example 16-41, (P)-2-[4-[4-(aminomethyl)-8-methyl-1-oxo-2H-phthalazin-6-yl]-2-methyl-pyrazol-3-yl]-3-fluoro-4-methyl-naphthalene-1-carbonitrile]
28 nM	64 nM	20 nM			Cn1ncc(-c2ccc3c(=O)[nH]nc(CN)c3c2)c1-c1c(C#N)cc2ccccc2c1Cl (single isomer, unassigned) [Example 16-6]
341 nM	859 nM	437 nM			Cn1ncc(-c2cc(Cl)c3c(=O)[nH]nc(CN)c3c2)c1-c1c(C#N)cc2ccccc2c1Cl (single isomer, unassigned) [Example 16-63, (P)-3-[4-[4-(aminomethyl)-8-chloro-1-oxo-2H-phthalazin-6-yl]-2-methyl-pyrazol-3-yl]-4-chloro-naphthalene-2-carbonitrile]
41.9 nM	7 nM	6 nM			Cc1cc(-c2cnn(C)c2-c2c(F)c(Cl)cc(OC3CC3)c2C#N)cc2c(CN)n[nH]c(=O)c12 (single isomer, unassigned) [Example 16-46, (M)-2-[4-[4-(aminomethyl)-8-methyl-1-oxo-2H-phthalazin-6-yl]-2-methyl-pyrazol-3-yl]-4-chloro-6-(cyclopropoxy)-3-fluoro-benzonitrile]
			83 nM	23 nM	Cn1ncc(-c2ccc3c(=O)[nH]nc(CN)c3c2)c1-c1ccc2ncc(F)cc2c1C#N [Example 4-264, 6-[4-[4-(aminomethyl)-1-oxo-2H-phthalazin-6-yl]-2-methyl-pyrazol-3-yl]-3-fluoro-quinoline-5-carbonitrile]
128 nM	19 nM	10 nM			Cc1cc(-c2cnn(C)c2-c2c(F)ccc(OC3CC3)c2C#N)cc2c(CN)n[nH]c(=O)c12 (atropisomer, axis not shown; (M)) [Example 16-48, (M)-2-[4-[4-(aminomethyl)-8-methyl-1-oxo-2H-phthalazin-6-yl]-2-methyl-pyrazol-3-yl]-6-(cyclopropoxy)-3-fluoro-benzonitrile]
			30 nM	8 nM	Cn1ncc(-c2cc(Cl)c3c(=O)[nH]nc(CN)c3c2)c1-c1c(F)c(Cl)cc(OC2CC2)c1C#N [Example 10-25, 2-[4-[4-(aminomethyl)-8-chloro-1-oxo-2H-phthalazin-6-yl]-2-methyl-pyrazol-3-yl]-4-chloro-6-(cyclopropoxy)-3-fluoro-benzonitrile]
			89 nM	28 nM	Cn1ncc(-c2ccc3c(=O)[nH]nc(CN)c3c2)c1-c1ccc2ccc(Cl)cc2c1C#N [Example 4-258, 2-[4-[4-(aminomethyl)-1-oxo-2H-phthalazin-6-yl]-2-methyl-pyrazol-3-yl]-7-chloro-naphthalene-1-carbonitrile]
			1650 nM	1000 nM	Cn1ncc(-c2ccc3c(=O)[nH]nc(CN)c3c2)c1-c1cccc2cccc(C#N)c12 [Example 4-265, 8-[4-[4-(aminomethyl)-1-oxo-2H-phthalazin-6-yl]-2-methyl-pyrazol-3-yl]naphthalene-1-carbonitrile]
			83 nM	35 nM	Cc1cc(-c2cnn(C)c2-c2c(C#N)cc3ccccc3c2Cl)cc2c(CN)n[nH]c(=O)c12 [Example 10-26, 3-[4-[4-(aminomethyl)-8-methyl-1-oxo-2H-phthalazin-6-yl]-2-methyl-pyrazol-3-yl]-4-chloro-naphthalene-2-carbonitrile]
	19 nM	13 nM			Cc1cc(-c2cnn(C)c2-c2c(F)c(Cl)c3ccccc3c2C#N)cc2c(CN)n[nH]c(=O)c12 (atropisomer, axis not shown; (M)) [Example 16-18, (M)-2-[4-[4-(aminomethyl)-8-methyl-1-oxo-2H-phthalazin-6-yl]-2-methyl-pyrazol-3-yl]-4-chloro-3-fluoro-naphthalene-1-carbonitrile]
489 nM		1000 nM			N#Cc1c(OC2CC2)cc(Cl)c(F)c1-c1c(-c2ccc3c(=O)[nH]nc(CN)c3c2)cnn1C(F)(F)F (atropisomer, axis not shown; (P)) [Example 16-119, (P)-2-(4-(4-(aminomethyl)-1-oxo-1,2-dihydrophthalazin-6-yl)-1-(trifluoromethyl)-1H-pyrazol-5-yl)-4-chloro-6-cyclopropoxy-3-fluorobenzonitrile]
	285 nM	129 nM			Cc1cc(-c2cnn(C)c2-c2c(F)c(Cl)c3ccccc3c2C#N)cc2c(CN)n[nH]c(=O)c12 (atropisomer, axis not shown; (P)) [Example 16-17, (P)-2-[4-[4-(aminomethyl)-8-methyl-1-oxo-2H-phthalazin-6-yl]-2-methyl-pyrazol-3-yl]-4-chloro-3-fluoro-naphthalene-1-carbonitrile]
552 nM				25 nM	Cc1c(F)c(-c2c(-c3cc(Cl)c4c(=O)[nH]nc(CN)c4c3)cnn2C)c(C#N)c2ncc(Cl)cc12 (atropisomer, axis not shown; (M)) [Example 16-98, (M)-7-(4-(4-(aminomethyl)-8-chloro-1-oxo-1,2-dihydrophthalazin-6-yl)-1-methyl-1H-pyrazol-5-yl)-3-chloro-6-fluoro-5-methylquinoline-8-carbonitrile]
			837 nM	97 nM	Cn1ncc(-c2ccc3c(=O)[nH]nc(CN)c3c2)c1-c1c(Cl)cc2ccccc2c1Cl [Example 4-259, 4-(aminomethyl)-6-[5-(1,3-dichloro-2-naphthyl)-1-methyl-pyrazol-4-yl]-2H-phthalazin-1-one]
			432 nM	80 nM	Cn1ncc(-c2ccc3c(=O)[nH]nc(CN)c3c2F)c1-c1ccc2ccccc2c1C#N [Example 17-2, 2-[4-[4-(aminomethyl)-5-fluoro-1-oxo-2H-phthalazin-6-yl]-2-methyl-pyrazol-3-yl]naphthalene-1-carbonitrile]

From patent publication US20240208912A1 (Mirati Therapeutics, Inc., priority 2021, published 2024)
